Active and inactive are the calls of the source.
What was measured:
BJ = test: cytotoxicity toward BJ-TERT fibroblasts, dose response, cell-based, RAS-independent, luminescence (AID 1933); format: functional; settings: Homo sapiens
[1] = biological target: T1, Sentrin-specific protease 6 (Homo sapiens, UniProt Q9GZR1); test: SAR Analysis of small molecule inhibitors of Sentrin-specific protease 6 (SENP6) using a Luminescent assay. [Related pubchem assays (depositor defined):AID2582, AID2599]; format: functional
T1 sequence (Q9GZR1 whole entry): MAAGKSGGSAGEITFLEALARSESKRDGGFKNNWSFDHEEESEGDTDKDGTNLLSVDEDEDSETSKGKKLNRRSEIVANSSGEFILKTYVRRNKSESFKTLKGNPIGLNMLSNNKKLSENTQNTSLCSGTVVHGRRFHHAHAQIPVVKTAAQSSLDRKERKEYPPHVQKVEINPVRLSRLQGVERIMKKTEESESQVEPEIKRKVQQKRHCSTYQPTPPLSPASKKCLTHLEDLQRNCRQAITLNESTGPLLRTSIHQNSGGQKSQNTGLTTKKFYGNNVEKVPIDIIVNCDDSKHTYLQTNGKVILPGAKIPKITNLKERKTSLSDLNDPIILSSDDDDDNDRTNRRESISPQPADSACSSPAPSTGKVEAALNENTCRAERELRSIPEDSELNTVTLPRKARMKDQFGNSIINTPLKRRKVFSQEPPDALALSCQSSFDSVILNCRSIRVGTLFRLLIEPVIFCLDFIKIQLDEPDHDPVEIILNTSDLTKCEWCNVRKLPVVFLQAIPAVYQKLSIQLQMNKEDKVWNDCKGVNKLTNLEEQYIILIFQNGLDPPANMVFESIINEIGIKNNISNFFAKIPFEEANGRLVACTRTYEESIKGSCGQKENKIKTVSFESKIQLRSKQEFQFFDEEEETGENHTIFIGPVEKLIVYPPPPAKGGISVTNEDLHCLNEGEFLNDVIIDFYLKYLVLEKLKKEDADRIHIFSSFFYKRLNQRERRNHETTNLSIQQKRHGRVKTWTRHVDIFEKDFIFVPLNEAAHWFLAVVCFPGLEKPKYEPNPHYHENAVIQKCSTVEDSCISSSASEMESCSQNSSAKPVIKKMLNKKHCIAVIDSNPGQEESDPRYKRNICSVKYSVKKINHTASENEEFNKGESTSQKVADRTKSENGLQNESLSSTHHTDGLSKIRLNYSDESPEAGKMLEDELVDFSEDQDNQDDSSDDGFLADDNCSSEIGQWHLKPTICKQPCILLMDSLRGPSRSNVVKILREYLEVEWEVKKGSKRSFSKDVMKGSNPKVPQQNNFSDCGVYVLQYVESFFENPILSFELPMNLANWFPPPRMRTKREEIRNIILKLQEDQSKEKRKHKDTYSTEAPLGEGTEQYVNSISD

[2] = biological target: T2, Sentrin-specific protease 7 (Homo sapiens, UniProt Q9BQF6); test: SENP7 protease inhibitors, SAR follow-up, biochemical, luminescence (AID 504497); format: functional
T2 sequence (Q9BQF6 whole entry): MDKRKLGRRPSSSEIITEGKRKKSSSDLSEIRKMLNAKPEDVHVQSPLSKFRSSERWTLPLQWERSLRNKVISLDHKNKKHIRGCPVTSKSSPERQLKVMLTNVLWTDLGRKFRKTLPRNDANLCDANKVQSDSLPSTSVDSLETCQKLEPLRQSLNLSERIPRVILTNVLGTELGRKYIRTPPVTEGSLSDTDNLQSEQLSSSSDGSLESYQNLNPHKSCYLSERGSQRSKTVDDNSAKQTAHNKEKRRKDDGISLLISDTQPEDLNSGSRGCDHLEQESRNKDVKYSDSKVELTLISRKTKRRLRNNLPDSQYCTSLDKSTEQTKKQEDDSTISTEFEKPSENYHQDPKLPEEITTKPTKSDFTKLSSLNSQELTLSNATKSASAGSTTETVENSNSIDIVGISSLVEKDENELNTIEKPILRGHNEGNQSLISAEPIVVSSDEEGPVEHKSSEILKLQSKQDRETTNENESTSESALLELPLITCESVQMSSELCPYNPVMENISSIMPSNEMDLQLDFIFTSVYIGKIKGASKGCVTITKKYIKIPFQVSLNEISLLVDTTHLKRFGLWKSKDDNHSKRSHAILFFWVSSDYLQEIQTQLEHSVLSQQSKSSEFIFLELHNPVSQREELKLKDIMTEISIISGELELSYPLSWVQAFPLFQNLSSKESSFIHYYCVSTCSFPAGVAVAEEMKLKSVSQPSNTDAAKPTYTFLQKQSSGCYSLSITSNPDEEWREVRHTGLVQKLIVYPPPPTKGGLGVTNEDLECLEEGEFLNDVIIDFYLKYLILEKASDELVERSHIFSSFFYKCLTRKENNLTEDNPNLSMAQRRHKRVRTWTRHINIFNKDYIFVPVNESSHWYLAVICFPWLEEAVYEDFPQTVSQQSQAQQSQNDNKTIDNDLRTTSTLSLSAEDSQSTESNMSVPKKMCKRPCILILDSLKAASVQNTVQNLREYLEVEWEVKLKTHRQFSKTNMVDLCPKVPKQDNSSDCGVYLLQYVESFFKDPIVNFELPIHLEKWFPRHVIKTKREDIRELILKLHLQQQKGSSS

[3] = biological target: Photoreceptor-specific nuclear receptor (Homo sapiens, UniProt Q9Y5X4); format: functional;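 also: potency for compounds that break the NR2E3 corepressor complex and count as activators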
Chain of Photoreceptor-specific nuclear receptor (Q9Y5X4 whole entry): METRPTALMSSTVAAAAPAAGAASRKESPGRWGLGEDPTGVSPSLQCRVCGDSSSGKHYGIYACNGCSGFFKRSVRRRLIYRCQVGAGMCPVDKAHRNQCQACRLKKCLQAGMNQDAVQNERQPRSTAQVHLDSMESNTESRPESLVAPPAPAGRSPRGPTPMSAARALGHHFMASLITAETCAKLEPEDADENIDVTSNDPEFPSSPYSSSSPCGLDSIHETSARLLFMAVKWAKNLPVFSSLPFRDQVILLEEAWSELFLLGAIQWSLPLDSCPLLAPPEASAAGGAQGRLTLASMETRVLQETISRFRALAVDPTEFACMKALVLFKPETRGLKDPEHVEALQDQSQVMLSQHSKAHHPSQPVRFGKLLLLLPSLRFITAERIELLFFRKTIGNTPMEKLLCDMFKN

[4] = inhibitors of SNCA 5'UTR-driven reporter translation, confirmation, H4 neuroglioma cells, luminescence (AID 1988); format: functional, cell-based
[5] = biological target: Sphingosine 1-phosphate receptor 1 (Homo sapiens, UniProt P21453); format: functional;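 also: Tango beta-arrestin reporter U2OS cells stimulated with S1P near its EC80; inhibitor potency meaning antagonism of receptor activation by the natural agonist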
Chain of Sphingosine 1-phosphate receptor 1 (P21453 whole entry): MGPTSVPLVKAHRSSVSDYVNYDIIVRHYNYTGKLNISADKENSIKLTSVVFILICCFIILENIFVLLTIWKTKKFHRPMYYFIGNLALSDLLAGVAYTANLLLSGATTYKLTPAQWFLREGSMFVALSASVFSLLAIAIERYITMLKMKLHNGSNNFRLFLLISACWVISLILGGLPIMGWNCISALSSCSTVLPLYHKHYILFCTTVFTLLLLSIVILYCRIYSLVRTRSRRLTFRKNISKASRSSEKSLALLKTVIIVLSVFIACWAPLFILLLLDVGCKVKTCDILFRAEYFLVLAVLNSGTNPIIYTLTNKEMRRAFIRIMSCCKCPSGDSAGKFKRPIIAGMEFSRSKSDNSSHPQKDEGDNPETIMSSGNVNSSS

[6] = biological target: Serine/threonine-protein phosphatase (Candida dubliniensis (strain CD36 / CBS 7987 / NCPF 3949 / NRRLY-17841) (Yeast), UniProt B9W6M3); test: calcineurin pathway inhibitors in yeast reporter, dose response, S. cerevisiae, CDRE-lacZ, luminescence, secondary (AID 2388); format: functional, cell-based;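 also: yeast reporter cells carrying a calcineurin-responsive lacZ construct stimulated with calcium chloride; luminescent beta-galactosidase reporter signal in whole cells rather than isolated phosphatase activity; potency for inhibition where a drop in reporter signal means calcineurin blockade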
Chain of Serine/threonine-protein phosphatase (B9W6M3 whole entry): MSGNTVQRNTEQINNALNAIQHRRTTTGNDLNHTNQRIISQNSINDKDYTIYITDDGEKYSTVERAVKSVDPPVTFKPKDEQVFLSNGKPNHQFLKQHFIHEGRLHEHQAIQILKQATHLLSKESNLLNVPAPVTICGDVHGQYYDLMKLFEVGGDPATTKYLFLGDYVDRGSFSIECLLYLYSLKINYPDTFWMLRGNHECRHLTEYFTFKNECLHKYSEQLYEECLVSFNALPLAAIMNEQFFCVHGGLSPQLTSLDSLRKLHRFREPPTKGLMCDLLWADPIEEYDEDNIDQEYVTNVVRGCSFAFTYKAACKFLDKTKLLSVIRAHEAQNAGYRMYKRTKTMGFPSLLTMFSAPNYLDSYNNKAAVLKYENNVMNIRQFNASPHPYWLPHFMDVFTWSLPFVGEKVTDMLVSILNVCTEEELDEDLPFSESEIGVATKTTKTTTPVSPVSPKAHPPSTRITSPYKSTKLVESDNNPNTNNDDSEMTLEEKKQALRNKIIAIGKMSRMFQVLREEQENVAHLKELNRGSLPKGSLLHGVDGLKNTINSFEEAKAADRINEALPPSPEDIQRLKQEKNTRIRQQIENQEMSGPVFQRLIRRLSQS

HEK293 = test: SAR Analysis of small molecule inhibitors of T-cell specific antigen receptor-induced NF-kB activation in a HEK-293T cell line using a luminescence assay - Set 2. [Related pubchem assays (depositor defined):AID435003, AID435012, AID489026]; format: functional, cell-based; settings: Homo sapiens
[7] = HepG2 cell cytotoxicity, dose response, cytotoxicity control for Shn3 inhibitor project, CellTiter-Glo, cherry-picked (AID 624134); format: functional, cell-based
Caspase-6 = biological target: T3, Caspase-6 (Homo sapiens, UniProt P55212); test: human caspase-6 inhibitors, dose response, biochemical, VEID-R110 fluorescence, cherry-pick (AID 720632)
T3 sequence (P55212 whole entry): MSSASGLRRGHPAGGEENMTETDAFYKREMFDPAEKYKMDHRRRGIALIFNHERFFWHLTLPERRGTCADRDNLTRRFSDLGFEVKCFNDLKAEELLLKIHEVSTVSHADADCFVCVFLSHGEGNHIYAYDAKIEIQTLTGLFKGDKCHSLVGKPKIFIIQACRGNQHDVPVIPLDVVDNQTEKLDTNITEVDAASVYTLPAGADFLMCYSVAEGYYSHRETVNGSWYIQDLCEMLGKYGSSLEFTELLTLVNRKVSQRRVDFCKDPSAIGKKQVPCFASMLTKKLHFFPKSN

O=C(Cc1ccc([N+](=O)[O-])cc1)N/N=C/c1ccc([N+](=O)[O-])o1
EC50 (BJ): > 150 µM (not active)

CCCCNc1cc(NC(C)=O)cc2cc(OC)c(OC)cc12
IC50 [1]: 82 µM (active) | IC50 [2]: > 99 µM (inactive)

Cn1nc(-c2ccc(Cl)cc2)nc2c(=O)n(C)c(=O)nc1-2
IC50 [3]: > 39.8 µM (not active) | EC50 [4]: 4.07 µM (active) | IC50 [5]: 2.34 µM (active)

COc1ccc(C(NC(=O)C(C)C)c2ccc3cccnc3c2O)cc1 (stereo not given)
EC50 [6]: > 180 µM (inactive) | IC50 (HEK293): 3.15 µM (active) | AC50 [7]: 1.27 µM (active)

NS(=O)(=O)c1ccc(NC(=O)COC(=O)c2ccc([N+](=O)[O-])s2)cc1
AC50 (Caspase-6): 3.33 µM (active)

Reference: ChEMBL document CHEMBL1201862, “PubChem BioAssay data set” (2004)
